Source: US20100255015A1 (priority 2007, published 2010)
Read-outs that look alike come from different tables or passages of the source.

Columns and labels:
[1] = tested on: PBMCs with autologous DCs; type: cell-based, human
[2] = tested on: CD1b-restricted T cell clones Z5B71, Z4B27, Z5B11; assay: DCs pulsed with heat-killed or infected with living M. tuberculosis, recognition by CD1b-restricted T cell clones; type: cell-based, human
Procedure: Pulsing and infection of DCs with M. tuberculosis. M. tuberculosis was killed at 80° C. for 20 min and incubated in RPMI-1640 medium containing 10% FCS for 2 hours at 37° C. with DCs (3×10^4/well) before addition of T cells (10^5/well in triplicate). DCs were infected as previously described De Libero et al. (2005) Immunity 22, 763-72 and IFN-γ release was monitored by ELISA.

Z5B71 T cell clone = assay: T cell activation assay: stimulation of the Z5B71 T cell clone, IFN-γ ELISA; type: cell-based, human; settings: antigen-loaded APCs, 36 hr
CD1b = target: T1, CD1b (Homo sapiens, UniProt P29016); type: cell-based; settings: Z5B71 clone
T1 construct: expressed in transfected cells; host or cells: THP-1 (human promyelocytic), BCMGS-Neo / -Hygro vectors, electroporation
T1 sequence (P61769 21-119): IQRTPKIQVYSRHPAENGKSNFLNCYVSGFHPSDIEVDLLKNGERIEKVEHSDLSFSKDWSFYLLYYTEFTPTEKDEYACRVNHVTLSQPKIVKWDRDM
T1 sequence (P29016 18-333): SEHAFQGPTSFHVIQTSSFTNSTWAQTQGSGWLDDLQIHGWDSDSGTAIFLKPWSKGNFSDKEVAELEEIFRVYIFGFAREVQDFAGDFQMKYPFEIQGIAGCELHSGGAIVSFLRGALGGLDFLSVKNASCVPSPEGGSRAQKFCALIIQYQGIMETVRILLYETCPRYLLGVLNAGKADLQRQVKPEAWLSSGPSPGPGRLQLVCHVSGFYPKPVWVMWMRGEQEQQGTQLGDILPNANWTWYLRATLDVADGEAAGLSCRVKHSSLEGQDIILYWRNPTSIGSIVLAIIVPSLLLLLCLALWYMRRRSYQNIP

Substance | IFN-γ release after stimulation, mean average [1] | IFN-γ release after stimulation, mean average ([1]; 10 μg/ml, 6 days) | effect of blocking antibodies against type 1 CD1 molecules on induced IFN-γ secretion ([1]; PPD-positive healthy donors, CD1 blocking antibodies 10 μg/ml each) | IFN-γ release after stimulation ([1]; naïve, PPD-negative donors (n=10), 10 μg/ml, 6 days) | IFN-γ release after stimulation ([1]; tuberculosis patients (n=11), 10 μg/ml, 6 days) | immunogenicity when APCs infected with living M. tuberculosis (IFN-γ release by Z5B71) [2] | stimulation of the Z5B71 T cell clone (IFN-γ release) (Z5B71 T cell clone) | T cell response with APCs expressing CD1b and CD1e versus only CD1b (IFN-γ release) (CD1b; THP-1-CD1b vs THP-1-CD1b-CD1e) | CD1 restriction: T cell stimulation with panel of CD1-transfected APCs (TNF-α release) (CD1b; THP-1 transfected with CD1A, CD1B or CD1C) | CD1 restriction: inhibition of clone reactivity by anti-CD1 mAbs (TNF-α release) (CD1b; mAbs at 10 μg/ml, 30 min before T cells)
glycerol monomycolate [GroMM] | 117 pg/mL | 73 pg/mL | abrogated the reactivity | no response | no IFN-γ secretion above background levels | highly immunogenic | intermediate activity | very similar T cell response | Only CD1b-expressing cells were able to stimulate T cells | only anti-CD1b mAbs were capable of inhibiting the reactivity of the clone
(S)-1-O-mycoloyl-glycerol (1-O-mycoloyl-sn-glycerol) [s(S)-GroMM] |  |  |  |  |  |  | s(R)-GroMM stimulated the Z5B71 T cells more efficiently than the s(S)-GroMM |  |  | 
(R)-1-O-mycoloyl-glycerol (3-O-mycoloyl-sn-glycerol) [s(R)-GroMM] |  |  |  |  |  |  | stimulated the Z5B71 T cells more efficiently than the s(S)-GroMM |  |  | 
